# Measured values: ChEMBL document CHEMBL3994632, “Selenoesters and selenoanhydrides as novel multidrug resistance reversing agents: A confirmation study in a colon cancer MDR cell line” (Bioorg Med Chem Lett, 2017)
# pIC50: −log10 of the molar value.
# Legend:
# COLO 320 [1] = test: Induction of apoptosis in human COLO320 cells at 2 uM after 24 hrs by Annexin V-FITC/propidium iodide staining based flow cytometry relative to M627; type: functional
# MRC5 = test: Cytotoxicity against human MRC5 cells after 24 hrs by MTT assay; type: ADME, cell-based; settings: MRC5, 24 h
# COLO 205 = test: Cytotoxicity against doxorubicin-sensitive human COLO205 cells after 24 hrs by MTT assay; type: functional, cell-based; settings: COLO 205, 24 h
# COLO 320 [2] = test: Cytotoxicity against multidrug resistant human COLO320 cells after 24 hrs by MTT assay; type: functional, cell-based; settings: COLO 320, 24 h
# [3] = Selectivity index, ratio of IC50 for human MRC5 cells to IC50 for multidrug resistant human COLO320 cells; type: functional
# [4] = Selectivity index, ratio of IC50 for human MRC5 cells to IC50 for doxorubicin-sensitive human COLO205 cells; type: functional
# [5] = Selectivity index, ratio of IC50 for doxorubicin-sensitive human COLO205 cells to IC50 for multidrug resistant human COLO320 cells; type: functional
# [6] = biological target: ATP-dependent translocase ABCB1 (Homo sapiens, UniProt P08183); test: Inhibition of human MDR1 transfected in mouse T lymphoma cells assessed as rhodamine-123 accumulation measured as fluorescence activity ratio quotient at 2 uM preincubated for 10 mins followed by rhodamine-123 addition measured after 20 mins by flow cytometry relative to verapamil; type: cell-based; set-up: scale not given: the % may be the effect or the level left
# COLO 320 [7] = test: Induction of apoptosis in human COLO320 cells assessed as cell death at 20 uM after 24 hrs by Annexin V-FITC/propidium iodide staining based flow cytometry (reference value: 4.75%); type: functional
# COLO 320 [8] = test: Induction of apoptosis in human COLO320 cells assessed as early apoptotic cells at 20 uM after 24 hrs by Annexin V-FITC/propidium iodide staining based flow cytometry (reference value: 20.3%); type: functional
# COLO 320 [9] = test: Induction of apoptosis in human COLO320 cells assessed as late apoptotic/necrotic cells at 20 uM after 24 hrs by Annexin V-FITC/propidium iodide staining based flow cytometry (reference value: 9.93%); type: functional
# ATP-dependent translocase ABCB1, sequence (P08183 whole entry): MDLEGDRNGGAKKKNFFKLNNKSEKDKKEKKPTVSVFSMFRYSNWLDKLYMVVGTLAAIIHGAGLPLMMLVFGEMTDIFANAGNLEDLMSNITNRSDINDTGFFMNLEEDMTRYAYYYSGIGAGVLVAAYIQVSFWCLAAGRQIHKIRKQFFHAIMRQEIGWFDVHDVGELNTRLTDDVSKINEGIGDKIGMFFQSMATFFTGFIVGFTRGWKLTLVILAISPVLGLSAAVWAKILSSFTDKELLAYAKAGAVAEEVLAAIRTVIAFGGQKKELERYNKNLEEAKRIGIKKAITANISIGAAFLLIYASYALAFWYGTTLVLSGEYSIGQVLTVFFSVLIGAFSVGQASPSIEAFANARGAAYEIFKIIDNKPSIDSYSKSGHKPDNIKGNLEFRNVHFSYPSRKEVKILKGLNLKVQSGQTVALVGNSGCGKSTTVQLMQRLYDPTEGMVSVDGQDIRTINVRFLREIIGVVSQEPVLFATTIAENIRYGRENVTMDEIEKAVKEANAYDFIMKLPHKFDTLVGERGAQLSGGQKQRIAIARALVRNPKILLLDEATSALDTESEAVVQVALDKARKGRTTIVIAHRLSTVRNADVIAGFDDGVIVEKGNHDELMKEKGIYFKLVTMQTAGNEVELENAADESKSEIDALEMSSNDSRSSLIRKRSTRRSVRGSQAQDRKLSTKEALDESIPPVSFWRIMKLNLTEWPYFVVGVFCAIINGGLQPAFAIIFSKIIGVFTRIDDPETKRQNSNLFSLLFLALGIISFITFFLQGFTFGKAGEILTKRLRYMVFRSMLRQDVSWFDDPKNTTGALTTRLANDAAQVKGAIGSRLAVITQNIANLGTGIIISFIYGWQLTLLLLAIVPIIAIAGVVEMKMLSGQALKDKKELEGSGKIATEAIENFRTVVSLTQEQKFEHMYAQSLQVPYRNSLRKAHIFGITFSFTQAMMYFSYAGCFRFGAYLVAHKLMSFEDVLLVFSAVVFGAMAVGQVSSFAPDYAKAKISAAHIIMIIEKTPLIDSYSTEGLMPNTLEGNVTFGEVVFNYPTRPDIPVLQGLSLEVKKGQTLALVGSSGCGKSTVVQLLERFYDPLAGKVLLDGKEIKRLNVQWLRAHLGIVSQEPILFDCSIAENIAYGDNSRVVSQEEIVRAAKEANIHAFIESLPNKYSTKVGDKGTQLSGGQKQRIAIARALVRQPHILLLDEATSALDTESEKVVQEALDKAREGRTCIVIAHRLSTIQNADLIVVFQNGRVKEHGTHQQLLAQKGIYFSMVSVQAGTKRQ
smiles,measurement,setting,value
N#C[Se-].[K+],Activity,COLO 320 [1],6.98%
same,pIC50,MRC5,< 4.00
same,pIC50,COLO 205,< 4.00
same,pIC50,COLO 320 [2],< 4.00
C[Se]C(=O)c1cccc(C(=O)[Se]C)c1,Activity,COLO 320 [1],36.3%
same,pIC50,MRC5,4.55
same,Ratio IC50,[3],2.3
same,Ratio IC50,[4],<=0.28
same,pIC50,COLO 205,< 4.00
same,pIC50,COLO 320 [2],4.90
same,Ratio IC50,[5],>=8
C[Se]C(=O)c1cccc(C(=O)[Se]C)n1,Activity,COLO 320 [1],36.9%
same,pIC50,MRC5,4.75
same,Ratio IC50,[3],<=0.18
same,Ratio IC50,[4],<=0.18
same,pIC50,COLO 205,< 4.00
same,pIC50,COLO 320 [2],< 4.00
O=C1[Se]C(=O)c2ccccc21,Activity,COLO 320 [1],88.4%
same,pIC50,MRC5,< 4.00
same,Ratio IC50,[3],>=1.6
same,pIC50,COLO 205,< 4.00
same,pIC50,COLO 320 [2],4.19
same,Ratio IC50,[5],>=1.6
N#C[O-].[K+],Activity,COLO 320 [1],7.28%
same,pIC50,MRC5,< 4.00
same,pIC50,COLO 205,< 4.00
same,pIC50,COLO 320 [2],< 4.00
COc1cc(OC)cc(C(=O)[Se]CC(=O)C(C)(C)C)c1,Activity,COLO 320 [1],88.7%
same,pIC50,MRC5,5.30
same,Ratio IC50,[3],14.4
same,Ratio IC50,[4],4.2
same,pIC50,COLO 205,5.92
same,pIC50,COLO 320 [2],6.46
same,Activity,[6],46 to 228%
same,Ratio IC50,[5],3.4
c1ccc2c(c1)Nc1c(ccc3ccccc13)S2,Activity,COLO 320 [7],2.91%
same,Activity,COLO 320 [8],58.5%
same,Activity,COLO 320 [9],22%
C[Se]C(=O)c1ccc(C(=O)[Se]C)cc1,Activity,COLO 320 [1],36.9%
same,pIC50,MRC5,4.21
same,Ratio IC50,[3],<=0.62
same,Ratio IC50,[4],<=0.62
same,pIC50,COLO 205,< 4.00
same,pIC50,COLO 320 [2],< 4.00
CC(=O)C[Se]C(=O)c1ccc(Cl)cc1,Activity,COLO 320 [1],87.7%
same,pIC50,MRC5,5.27
same,Ratio IC50,[3],9.7
same,Ratio IC50,[4],0.98
same,pIC50,COLO 205,5.26
same,pIC50,COLO 320 [2],6.26
same,Ratio IC50,[5],10
O=C1OC(=O)c2ccccc21 [PHTHALIC ANHYDRIDE],Activity,COLO 320 [1],6.06%
same,pIC50,MRC5,< 4.00
same,pIC50,COLO 205,< 4.00
same,pIC50,COLO 320 [2],< 4.00
O=C(C[Se]C(=O)c1ccccc1)Oc1ccccc1,Activity,COLO 320 [1],43%
same,pIC50,MRC5,< 4.00
same,Ratio IC50,[3],>=1.9
same,pIC50,COLO 205,< 4.00
same,pIC50,COLO 320 [2],4.27
same,Ratio IC50,[5],>=1.9
C[Se]C(=O)c1ccc(C(=O)[Se]C)s1,Activity,COLO 320 [1],30.4%
same,pIC50,MRC5,5.37
same,Ratio IC50,[3],<=0.04
same,Ratio IC50,[4],<=0.04
same,pIC50,COLO 205,< 4.00
same,pIC50,COLO 320 [2],< 4.00
NC(=O)C[Se]C(=O)c1ccccc1,Activity,COLO 320 [1],37.3%
same,pIC50,MRC5,4.12
same,Ratio IC50,[3],<=0.77
same,Ratio IC50,[4],<=0.77
same,pIC50,COLO 205,< 4.00
same,pIC50,COLO 320 [2],< 4.00
COC(=O)C[Se]C(=O)c1ccc(Cl)cc1,Activity,COLO 320 [1],43.4%
same,pIC50,MRC5,4.48
same,Ratio IC50,[3],<=0.33
same,Ratio IC50,[4],<=0.33
same,pIC50,COLO 205,< 4.00
same,pIC50,COLO 320 [2],< 4.00
N.N#CS,Activity,COLO 320 [1],9.55%
same,pIC50,MRC5,< 4.00
same,pIC50,COLO 205,< 4.00
same,pIC50,COLO 320 [2],< 4.00
CC(C)(C)C(=O)C[Se]C(=O)c1ccc(Cl)cc1,Activity,COLO 320 [1],80.3%
same,pIC50,MRC5,5.09
same,Ratio IC50,[3],8.4
same,Ratio IC50,[4],5
same,pIC50,COLO 205,5.79
same,pIC50,COLO 320 [2],6.02
same,Activity,[6],34 to 217%
same,Ratio IC50,[5],1.7
